According to patent US8063221B2, “Aminoquinolones as GSK-3 inhibitors” (Kyorin Pharmaceutical Co., Ltd., priority 2006, dated 2011):
≈ marks a conversion by molar mass, not a printed value. Read-outs that look alike come from different tables or passages of the source.

Columns and labels:
[1] = molecular target: T1, recombinant full-length human GSK3β (Homo sapiens, UniProt P49841); experiment: Luciferase-coupled cell-free GSK3β kinase assay; type: biochemical
T1 construct: recombinant full-length human GSK3β (Upstate); purchased Upstate
T1 sequence (P49841 whole entry): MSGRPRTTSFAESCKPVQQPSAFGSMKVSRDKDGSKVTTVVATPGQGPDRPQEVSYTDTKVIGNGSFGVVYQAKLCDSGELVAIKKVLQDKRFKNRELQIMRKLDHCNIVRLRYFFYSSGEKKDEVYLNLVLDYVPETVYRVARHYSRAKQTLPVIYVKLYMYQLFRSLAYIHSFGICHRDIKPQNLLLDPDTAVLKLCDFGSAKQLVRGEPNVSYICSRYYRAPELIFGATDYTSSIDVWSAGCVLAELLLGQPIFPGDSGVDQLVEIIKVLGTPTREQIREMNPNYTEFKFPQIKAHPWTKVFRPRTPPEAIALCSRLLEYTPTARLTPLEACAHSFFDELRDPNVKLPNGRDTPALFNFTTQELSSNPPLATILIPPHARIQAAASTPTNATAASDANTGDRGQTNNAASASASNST
Description: For compounds in Tables 1 and 2, IC50 (μM) for GSK3β enzyme in cell free assay is provided as follows:
Luciferase-Coupled Protein Kinase Assays
All coupled-luciferase assays are performed by using a brief incubation with firefly luciferase (Promega) after completion of the kinase assay. KinaseGlo Plus is used for reading kinase reactions with ATP>10 μM, KinaseGlo for ATP <10 μM. The assay volume in a 384-well plate for the kinase reaction is 30 microliters.
10-25 ng of recombinant full-length human GSK3β (Upstate) is incubated in the presence or absence of compound at varying concentrations for 1 hour at 30 degrees Celsius in 20 mM MOPS, pH 7.0, 10 mM magnesium acetate, 0.2 mM EDTA, 2 mM EGTA, 30 mM magnesium chloride, 62.5 μM phospho-glycogen synthase peptide-2, 5 μM ATP, 10 mM β-glycerol phosphate, 1 mM sodium orthovanadate and 1 mM dithiothreitol. Proceed to KinaseGlo luciferase reaction (see below).
Following the completion of the kinase reaction an equal volume of KinaseGlo or KinaseGlo Plus luciferase reagent (Promega) is added and the luminescence read using a luminescence plate reader within 5-10 minutes. Compound activity is expressed as % inhibition relative to maximal inhibition observed at the maximal dose and IC50 values then calculated using curve fitting software (GraphPad Prizm).

E. coli, ATCC8739 = experiment: Antibacterial activity (MIC), E. coli; type: cell-based; details: Escherichia coli
Text: (§1) As used herein, a minimum inhibitory concentration (MIC) for bacterial growth assay is the lowest level of a compound needed to cause an inhibition to bacterial growth in culture medium. In certain embodiments, the antibacterial activity of compounds herein, measured as MIC.
(§2) In certain embodiments, GSK3 inhibitors provided herein are substantially free of antibacterial activity or having very low antibacterial activity. The antibacterial activity can be measured by methods known in the art by estimating a minimum inhibitory concentration (MIC) for test compounds. A MIC is the lowest level of a compound needed to cause an inhibition to bacterial growth in a culture medium. […] (Clinical and Laboratory Standards Institute. Methods for Dilution Antimicrobial Susceptibility Tests for Bacteria That Grow Aerobically; Approved Standard-Sixth Edition: CLSI document […]. CLSI, Wayne, Pa. (2003))
(§3) Antibacterial activity for E. coli, ATCC8739 andS. aureus Smith expressed as MIC (μM) is provided as follows: […]

S. aureus Smith = experiment: Antibacterial activity (MIC), S. aureus; type: cell-based; details: Staphylococcus aureus
Text: as §1, §2, §3

[2] = ATCC8739, Table 2, E. coli ATCC8739, read-out: Antimicrobial MIC [μM] E. Coli
[3] = Table 2, S. aureus Smith, read-out: Antimicrobial MIC [μM] S. aureus
[4] = ATCC8739, Table 1, E. coli ATCC8739, read-out: Antibacterial MIC (μM) E.Coli
[5] = Table 1, read-out: Antibacterial MIC (μM) S. aureus Smith

Nc1c(F)c(NCCNc2ccccn2)c2c3c1c(=O)c(C(=O)O)cn3[C@@H](c1ccccc1)CO2 [Example 124]
IC50 ([1]; Table 2): 0.1 to 0.5 µM
MIC (E. coli, ATCC8739; [2]): 10 to 50 µM (≈ 4.75 to 23.8 µg/mL)
MIC (S. aureus Smith; [3]): 10 to 50 µM (≈ 4.75 to 23.8 µg/mL)

NC1=C2C(=O)C(C(=O)O)=CN3CCCCOC(C(NCCNc4ccccn4)=C1F)C23 (centres unmarked) [Example 140]
IC50 ([1]; Table 2): 0.5 to 1 µM
MIC (E. coli, ATCC8739; [2]): > 50 µM
MIC (S. aureus Smith; [3]): > 50 µM

Nc1c(F)c(NCCc2c[nH]c3ccccc23)c(F)c2c1c(=O)ccn2C1CC1 [compound 28]
IC50 ([1]; Table 1): 0.1 to 0.5 µM
MIC (E. coli, ATCC8739; [4]): > 50 µM
MIC (S. aureus Smith; [5]): > 50 µM

Nc1c(F)c(NCCNc2ccccn2)c(F)c2c1c(=O)cc(C(=O)O)n2C1CC1 [Example 136]
IC50 ([1]; Table 2): > 1 µM
MIC (E. coli, ATCC8739; [2]): > 50 µM
MIC (S. aureus Smith; [3]): > 50 µM

Nc1c(F)c(NCCCn2ccnc2)c(F)c2c1c(=O)ccn2C1CC1 [compound 26]
IC50 ([1]; Table 1): 0.1 to 0.5 µM
MIC (E. coli, ATCC8739; [4]): > 50 µM
MIC (S. aureus Smith; [5]): > 50 µM

CC(C)[C@@H]1COc2c(NCCNc3ccccn3)c(F)c(N)c3c(=O)c(C(=O)O)cn1c23 [compound 62]
IC50 ([1]; Table 2): < 0.1 µM
MIC (E. coli, ATCC8739; [2]): 0.5 to 10 µM (≈ 0.221 to 4.41 µg/mL)
MIC (S. aureus Smith; [3]): 0.5 to 10 µM (≈ 0.221 to 4.41 µg/mL)

CC1(C)COc2c(NCCCc3ccccc3)c(F)c(N)c3c(=O)c(C(=O)O)cn(c23)C1 [compound 25]
IC50 ([1]; Table 2): < 0.1 µM
MIC (E. coli, ATCC8739; [2]): 0.5 to 10 µM (≈ 0.22 to 4.39 µg/mL)
MIC (S. aureus Smith; [3]): 0.5 to 10 µM (≈ 0.22 to 4.39 µg/mL)

COc1c(NCCNc2ccccn2)c(F)c(N)c2c(=O)c(C(=O)O)c(C)n(C3CC3)c12 [Example 123]
IC50 ([1]; Table 2): < 0.1 µM
MIC (E. coli, ATCC8739; [2]): > 50 µM
MIC (S. aureus Smith; [3]): > 50 µM

CC1(C)COc2c(NCCCc3ccccc3)c(F)c(N)c3c(=O)c(C(=O)O)cn1c23 [compound 38]
IC50 ([1]; Table 2): < 0.1 µM
MIC (E. coli, ATCC8739; [2]): 10 to 50 µM (≈ 4.25 to 21.3 µg/mL)
MIC (S. aureus Smith; [3]): 10 to 50 µM (≈ 4.25 to 21.3 µg/mL)

C[C@@H]1COc2c(NCCCn3cnc4ccccc43)c(F)c(N)c3c(=O)c(C(=O)O)cn1c23 [compound 32]
IC50 ([1]; Table 2): 0.1 to 0.5 µM
MIC (E. coli, ATCC8739; [2]): 10 to 50 µM (≈ 4.51 to 22.6 µg/mL)
MIC (S. aureus Smith; [3]): 10 to 50 µM (≈ 4.51 to 22.6 µg/mL)

C[C@H]1COc2c(NCCCc3ccccc3)c(F)c(N)c3c(=O)c(C(=O)O)cn1c23 [compound 29]
IC50 ([1]; Table 2): < 0.1 µM
MIC (E. coli, ATCC8739; [2]): 10 to 50 µM (≈ 4.11 to 20.6 µg/mL)

CC(C)[C@@H]1COc2c(NCCCn3ccnc3)c(F)c(N)c3c(=O)c(C(=O)O)cn1c23 [compound 63]
IC50 ([1]; Table 2): < 0.1 µM
MIC (E. coli, ATCC8739; [2]): > 50 µM
MIC (S. aureus Smith; [3]): 10 to 50 µM (≈ 4.29 to 21.5 µg/mL)

Nc1c(F)c(NCCCn2ccnc2)c(F)c2c1c(=O)c(C(=O)O)cn2C1CCCC1 [compound 54]
IC50 ([1]; Table 1): < 0.1 µM
MIC (E. coli, ATCC8739; [4]): > 50 µM
MIC (S. aureus Smith; [5]): > 50 µM

Nc1c(F)c(NCCNc2cccc3ccccc23)c(F)c2c1c(=O)c(C(=O)O)cn2C1CCCC1 [compound 56]
IC50 ([1]; Table 1): < 0.1 µM
MIC (E. coli, ATCC8739; [4]): 10 to 50 µM (≈ 4.93 to 24.6 µg/mL)
MIC (S. aureus Smith; [5]): 10 to 50 µM (≈ 4.93 to 24.6 µg/mL)

CC1(C)COc2c(NCCCn3ccnc3)c(F)c(N)c3c(=O)ccn1c23 [compound 79]
IC50 ([1]; Table 2): < 0.1 µM
MIC (E. coli, ATCC8739; ATCC8739, read-out: Antimicrobial MIC [μM] E. Coli): > 50 µM
MIC (S. aureus Smith; read-out: Antimicrobial MIC [μM] S. aureus): > 50 µM

Nc1c(F)c(NCCc2ccc(F)cc2)c(F)c2c1c(=O)ccn2C1CC1 [compound 10]
IC50 ([1]; Table 1): 0.5 to 1 µM
MIC (E. coli, ATCC8739; ATCC8739, read-out: Antibacterial MIC (μM) E.Coli): 10 to 50 µM (≈ 3.73 to 18.7 µg/mL)
MIC (S. aureus Smith; read-out: Antibacterial MIC (μM) S. aureus Smith): 10 to 50 µM (≈ 3.73 to 18.7 µg/mL)

COc1c(NCCNc2ccc(C(=O)O)cn2)c(F)c(N)c2c(=O)ccn(C3CC3)c12 [Example 137]
IC50 ([1]; Table 2): < 0.1 µM
MIC (E. coli, ATCC8739; [2]): > 50 µM
MIC (S. aureus Smith; [3]): > 50 µM

CC(C)[C@@H]1COc2c(NCCCc3ccccc3)c(F)c(N)c3c(=O)c(C(=O)O)cn1c23 [compound 64]
IC50 ([1]; Table 2): < 0.1 µM
MIC (E. coli, ATCC8739; [2]): 0.5 to 10 µM (≈ 0.22 to 4.39 µg/mL)
MIC (S. aureus Smith; [3]): 0.5 to 10 µM (≈ 0.22 to 4.39 µg/mL)

C[C@H]1COc2c(NCCCn3ccnc3)c(F)c(N)c3c(=O)c(C(=O)O)cn1c23 [compound 20]
IC50 ([1]; Table 2): 0.1 to 0.5 µM
MIC (E. coli, ATCC8739; [2]): 10 to 50 µM (≈ 4.01 to 20.1 µg/mL)
MIC (S. aureus Smith; [3]): 0.5 to 10 µM (≈ 0.201 to 4.01 µg/mL)

CSc1c(F)c(NCCNc2ccccn2)c(F)c2c1c(=O)c(C(=O)O)cn2C1CC1 [Example 128]
MIC (E. coli, ATCC8739; [2]): 0.5 to 10 µM (≈ 0.223 to 4.46 µg/mL)
MIC (S. aureus Smith; [3]): 0.5 to 10 µM (≈ 0.223 to 4.46 µg/mL)

Cc1ccc(C(C)C)c(OCCNc2c(F)c(N)c3c(=O)c(C(=O)O)cn4c3c2OC[C@@H]4C)c1 [compound 85]
IC50 ([1]; Table 2): 0.1 to 0.5 µM

C[C@H]1COc2c(NCCCc3ccccc3Cl)c(F)c(N)c3c(=O)c(C(=O)O)cn1c23 [compound 75]
IC50 ([1]; Table 2): < 0.1 µM

Nc1c(F)c(NCCCn2cnc3ccccc32)c2c3c1c(=O)c(C(=O)O)cn3CCCO2 [compound 45]
IC50 ([1]; Table 2): 0.1 to 0.5 µM

CC1COc2c(NCCCn3cnc4ccccc43)c(F)c(N)c3c(=O)ccn1c23 (centres unmarked) [compound 47]
IC50 ([1]; Table 2): 0.1 to 0.5 µM
